Tests used:
Format in all cases: cell-based
Conditions in all cases: human PBMCs, 24 hours incubation
TNFα = assay: PBMC cytokine profiling assay, TNFα induction
Method: (§1) Certain compounds disclosed herein we tested according to the procedure described below. Additionally, certain reference compounds were prepared and tested along with the compounds of the present disclosure.
(§2) Compounds were dissolved and stored in DMSO (Sigma-Aldrich, St. Louis, MO) at 10 mM concentration.
(§3) Cryopreserved human PBMCs isolated from healthy donors were purchased from StemCell Technologies (Vancouver, Canada). Cell culture medium used was RPMI with L-Glutamine (Mediatech, Manassas, VA) supplemented with 10% fetal bovine serum (Hyclone, GE Healthcare, Logan, UT) and Penicillin-Streptomycin (Mediatech). Human TNFα, IL12p40, and IFNα2a 384-well Assay capture plates, standards, buffers and processing reagents were obtained from MesoScale Discovery Technologies (MSD; Rockville, MD).
(§4) Cryopreserved human PBMCs (1×10e8 cells/ml) were thawed at 37° C. and resuspended in 25 mL warm cell culture medium. The cells were pelleted at 200×g (Beckman Avanti J-E) for 5 min and resuspended in 20 mL of fresh culture media. Cells were counted using a Cellometer (Nexcelcom Bioscience), adjusted to 2×10e6 cells, and incubated for 2 hours in an incubator set at 37° C., 5% CO2 to recover from cryopreservation. Compounds were serially diluted in DMSO at half-log steps to generate a 10-point dose range. Using a Bravo pipette equipped with a 384 well head (Agilent), 0.4 μL of compound was transferred to each well of a 384 well black, clear bottom plate (Greiner Bio-One, Germany) containing 30 μL of cell culture medium. Recovered PBMCs were then dispensed into the assay plate at 50 μL per well (100k cells/well) using the MicroFlow multichannel dispenser (Biotek). Final DMSO concentration was 0.5%. DMSO was used as the negative control. The plates were incubated for 24 hours at 37° C. PBMCs in the assay plate were pelleted by centrifugation (Beckman Avanti J-E) at 200×g for 5 min.
(§5) Using a Biomek FX 384 well pipetting station (Beckman), conditioned culture medium (CCM) from the assay plate was transferred to MSD capture plates customized for each cytokine. For IFNα and IL12-p40 detection, 25 μL and 20 μL of CCM were added directly to each capture plate, respectively. For TNFα detection, CCM was diluted 1:9 in fresh culture medium, and 20 μL of diluted CCM was used. Serially diluted calibration standards for each cytokine were used to generate standard curves and establish assay linearity. The plates were sealed and incubated overnight at 4° C. in a plate shaker (Titer Plate) set at 200 rpm. On the following day, antibodies specific for each cytokine were diluted 1:50 in MSD Diluent 100 antibody dilution buffer. Diluted antibodies were added to corresponding capture plates at 10 μL/well, and incubated at RT for 1-2 hrs in the shaker. The plates were washed with PBST buffer (3×, 60 μl/well) using a Biotek Multiflow plate washer. MSD Read Buffer diluted to 2× in deionized water and 35 μL/well was added via Biomek FX instrument. The plates were read immediately in a MSD6000 reader. Data were normalized to positive and negative controls in each assay plate. AC50 values represent compound concentrations at half-maximal effect based on normalized percent activation and calculated by non-linear regression using Pipeline Pilot software (Accelrys, San Diego, CA).

IFNα = assay: PBMC cytokine profiling assay, IFNα induction
Method: as §1, §2, §3, §4, §5

IL12p40 = assay: PBMC cytokine profiling assay, IL12-p40 induction
Method: as §1, §2, §3, §4, §5

CCCC[C@@H](Nc1nc(N)nc2cccnc12)C(=O)NCCO [Example 54, (R)-2-((2-aminopyrido[3,2-d]pyrimidin-4-yl)amino)-N-(2-hydroxyethyl)hexanamide]
AC50 (TNFα; Homo sapiens, PBMC, 24 h): 34 µM
AC50 (IFNα; Homo sapiens, PBMC, 24 h): > 50 µM
AC50 (IL12p40; Homo sapiens, PBMC, 24 h): 42.5 µM

CCCC[C@@H](Nc1nc(N)nc2cccnc12)[C@H](C)O [Example 86]
AC50 (TNFα): 2.9 µM
AC50 (IFNα): 37.4 µM
AC50 (IL12p40): 2.4 µM

CCCC[C@@](C)(Nc1nc(N)nc2cccnc12)C(C)O (single isomer, unassigned) [Example 96]
AC50 (TNFα): 1.1 µM
AC50 (IFNα): 2.8 µM
AC50 (IL12p40): 1 µM

CCCC[C@H](CO)Nc1nc(N)nc2c(C)ccnc12 [Example 57, (R)-2-((2-amino-8-methylpyrido[3,2-d]pyrimidin-4-yl)amino)hexan-1-ol]
AC50 (TNFα; Homo sapiens, PBMC, 24 h): 11 µM
AC50 (IFNα; Homo sapiens, PBMC, 24 h): > 50 µM
AC50 (IL12p40; Homo sapiens, PBMC, 24 h): 9.7 µM

CCCC[C@H](CN)Nc1nc(N)nc2cccnc12 [Example 50, (R)—N^4-(1-aminohexan-2-yl)pyrido[3,2-d]pyrimidine-2,4-diamine]
AC50 (TNFα; Homo sapiens, PBMC, 24 h): 26.9 µM
AC50 (IFNα; Homo sapiens, PBMC, 24 h): > 50 µM
AC50 (IL12p40; Homo sapiens, PBMC, 24 h): 23.1 µM

COc1cnc2c(NC(C)(C)C)nc(N)nc2c1 [Example 113, N^4-(tert-butyl)-7-methoxypyrido[3,2-d]pyrimidine-2,4-diamine]
AC50 (TNFα; Homo sapiens, PBMC, 24 h): 12.5 µM
AC50 (IFNα; Homo sapiens, PBMC, 24 h): > 50 µM
AC50 (IL12p40; Homo sapiens, PBMC, 24 h): 13.6 µM

CCCC[C@@H](Nc1nc(N)nc2cccnc12)c1nnc[nH]1 [Example 56, (R)—N^4-(1-(4H-1,2,4-triazol-3-yl)pentyl)pyrido[3,2-d]pyrimidine-2,4-diamine]
AC50 (TNFα; Homo sapiens, PBMC, 24 h): 3.6 µM
AC50 (IFNα; Homo sapiens, PBMC, 24 h): 1.9 µM
AC50 (IL12p40; Homo sapiens, PBMC, 24 h): 3.4 µM

CCCCNc1nc(N)nc2ccc(C(F)(F)F)nc12 [Example 32, N^4-butyl-6-(trifluoromethyl)pyrido[3,2-d]pyrimidine-2,4-diamine]
AC50 (TNFα; Homo sapiens, PBMC, 24 h): > 50 µM
AC50 (IFNα; Homo sapiens, PBMC, 24 h): > 50 µM
AC50 (IL12p40; Homo sapiens, PBMC, 24 h): > 50 µM

CC(F)(F)CC[C@H](CO)Nc1nc(N)nc2cccnc12 [Example 78, (R)-2-((2-aminopyrido[3,2-d]pyrimidin-4-yl)amino)-5,5-difluorohexan-1-ol]
AC50 (TNFα; Homo sapiens, PBMC, 24 h): 16 µM
AC50 (IFNα; Homo sapiens, PBMC, 24 h): > 50 µM
AC50 (IL12p40; Homo sapiens, PBMC, 24 h): 14.2 µM

CC(C)C[C@@H](CO)Nc1nc(N)nc2cccnc12 [Example 3B, (S)-2-((2-aminopyrido[3,2-d]pyrimidin-4-yl)amino)-4-methylpentan-1-ol]
AC50 (TNFα; Homo sapiens, PBMC, 24 h): 29.4 µM
AC50 (IFNα; Homo sapiens, PBMC, 24 h): 14.5 µM
AC50 (IL12p40; Homo sapiens, PBMC, 24 h): 15.5 µM

CCC[C@H](Nc1nc(N)nc2cccnc12)C(N)=O [Example 30B, (S)-2-((2-aminopyrido[3,2-d]pyrimidin-4-yl)amino)pentanamide]
AC50 (TNFα; Homo sapiens, PBMC, 24 h): 10.6 µM
AC50 (IFNα; Homo sapiens, PBMC, 24 h): > 50 µM
AC50 (IL12p40; Homo sapiens, PBMC, 24 h): 8.6 µM

CCCC[C@@H](CO)Nc1nc(N)nc2c(C)ccnc12 [Example 58, (S)-2-((2-amino-8-methylpyrido[3,2-d]pyrimidin-4-yl)amino)hexan-1-ol]
AC50 (TNFα; Homo sapiens, PBMC, 24 h): 3.9 µM
AC50 (IFNα; Homo sapiens, PBMC, 24 h): 4.1 µM
AC50 (IL12p40; Homo sapiens, PBMC, 24 h): 3.8 µM

CCC[C@@H](CO)Nc1nc(N)nc2cc(F)cnc12 [Example 43C, (S)-2-((2-amino-7-fluoropyrido[3,2-d]pyrimidin-4-yl)amino)pentan-1-ol]
AC50 (TNFα; Homo sapiens, PBMC, 24 h): 1.1 µM
AC50 (IFNα; Homo sapiens, PBMC, 24 h): 10.9 µM
AC50 (IL12p40; Homo sapiens, PBMC, 24 h): 1 µM

CCCC[C@H](CO)Nc1nc(N)nc2cc(Br)cnc12 [Example 82, (R)-2-((2-amino-7-bromopyrido[3,2-d]pyrimidin-4-yl)amino)hexan-1-ol]
AC50 (TNFα; Homo sapiens, PBMC, 24 h): 16.6 µM
AC50 (IFNα; Homo sapiens, PBMC, 24 h): > 50 µM
AC50 (IL12p40; Homo sapiens, PBMC, 24 h): 14.3 µM

CCC[C@H](CO)Nc1nc(N)nc2ccc(C)nc12 [Example 38C, (R)-2-((2-amino-6-methylpyrido[3,2-d]pyrimidin-4-yl)amino)pentan-1-ol]
AC50 (TNFα; Homo sapiens, PBMC, 24 h): > 50 µM
AC50 (IFNα; Homo sapiens, PBMC, 24 h): > 50 µM
AC50 (IL12p40; Homo sapiens, PBMC, 24 h): > 50 µM

CCCCNc1nc(N)nc2cc(Cl)cnc12 [Example 41, N^4-butyl-7-chloropyrido[3,2-d]pyrimidine-2,4-diamine]
AC50 (TNFα; Homo sapiens, PBMC, 24 h): 11 µM
AC50 (IFNα; Homo sapiens, PBMC, 24 h): 13 µM
AC50 (IL12p40; Homo sapiens, PBMC, 24 h): 9.1 µM

CCCC[C@](C)(Nc1nc(N)nc2cccnc12)C(C)O (single isomer, unassigned) [Example 92]
AC50 (TNFα; Homo sapiens, PBMC, 24 h): 4.3 µM
AC50 (IFNα; Homo sapiens, PBMC, 24 h): > 50 µM
AC50 (IL12p40; Homo sapiens, PBMC, 24 h): 4.7 µM

CCCC[C@H](CO)Nc1nc(N)nc2cc(F)cnc12 [Example 44, (R)-2-((2-amino-7-fluoropyrido[3,2-d]pyrimidin-4-yl)amino)hexan-1-ol]
AC50 (TNFα; Homo sapiens, PBMC, 24 h): 3 µM
AC50 (IFNα; Homo sapiens, PBMC, 24 h): > 50 µM
AC50 (IL12p40; Homo sapiens, PBMC, 24 h): 2.4 µM

CCCC[C@H](CO)Nc1nc(N)nc2ccccc12 [Example 47B, (R)-2-((2-aminoquinazolin-4-yl)amino)hexan-1-ol]
AC50 (TNFα; Homo sapiens, PBMC, 24 h): 2.7 µM
AC50 (IFNα; Homo sapiens, PBMC, 24 h): > 50 µM
AC50 (IL12p40; Homo sapiens, PBMC, 24 h): 2 µM

CCCC[C@@H](Nc1nc(N)nc2cccnc12)C(O)CF (single isomer, unassigned) [Example 88]
AC50 (TNFα; Homo sapiens, PBMC, 24 h): 0.4 µM
AC50 (IFNα; Homo sapiens, PBMC, 24 h): 35.6 µM
AC50 (IL12p40; Homo sapiens, PBMC, 24 h): 0.37 µM

CCC[C@H](Nc1nc(N)nc2cccnc12)C(=O)NCCN [Example 36, (S)—N-(2-aminoethyl)-2-((2-aminopyrido[3,2-d]pyrimidin-4-yl)amino)pentanamide]
AC50 (TNFα; Homo sapiens, PBMC, 24 h): 21.5 µM
AC50 (IFNα; Homo sapiens, PBMC, 24 h): > 50 µM
AC50 (IL12p40; Homo sapiens, PBMC, 24 h): 10.8 µM

CCCC[C@H](CNS(C)(=O)=O)Nc1nc(N)nc2cccnc12 [Example 52, (R)—N-(2-((2-aminopyrido[3,2-d]pyrimidin-4-yl)amino)hexyl)methanesulfonamide]
AC50 (TNFα; Homo sapiens, PBMC, 24 h): 3.2 µM
AC50 (IFNα; Homo sapiens, PBMC, 24 h): > 50 µM
AC50 (IL12p40; Homo sapiens, PBMC, 24 h): 3.6 µM

CCCC[C@@H](CO)Nc1nc(N)nc2ccc(C)nc12 [Example 40C, (S)-2-((2-amino-6-methylpyrido[3,2-d]pyrimidin-4-yl)amino)hexan-1-ol]
AC50 (TNFα; Homo sapiens, PBMC, 24 h): 0.94 µM
AC50 (IFNα; Homo sapiens, PBMC, 24 h): 2.4 µM
AC50 (IL12p40; Homo sapiens, PBMC, 24 h): 0.87 µM

CCCC[C@](C)(CNC(C)=O)Nc1nc(N)nc2cc(C)cnc12 [Example 66, (R)—N-(2-((2-amino-7-methylpyrido[3,2-d]pyrimidin-4-yl)amino)-2-methylhexyl)acetamide]
AC50 (TNFα; Homo sapiens, PBMC, 24 h): 0.04 µM
AC50 (IFNα; Homo sapiens, PBMC, 24 h): 1.6 µM
AC50 (IL12p40; Homo sapiens, PBMC, 24 h): 0.03 µM

CCCCC(Nc1nc(N)nc2cccnc12)C(C)O (stereo not drawn) [Example 103, 3-((2-aminopyrido[3,2-d]pyrimidin-4-yl)amino)heptan-2-ol]
AC50 (TNFα; Homo sapiens, PBMC, 24 h): 3.3 µM
AC50 (IFNα): 10.3 µM
AC50 (IL12p40; Homo sapiens, PBMC, 24 h): 2.6 µM

CCC[C@H](CO)Nc1nc(N)nc2cccnc12 [Example 8, (R)-2-((2-aminopyrido[3,2-d]pyrimidin-4-yl)amino)pentan-1-ol]
AC50 (TNFα; Homo sapiens, PBMC, 24 h): 20.2 µM
AC50 (IFNα; Homo sapiens, PBMC, 24 h): > 50 µM
AC50 (IL12p40; Homo sapiens, PBMC, 24 h): 19.4 µM

CCCC[C@@H](Nc1nc(N)nc2cccnc12)C(CF)NC(C)=O (stereo partly drawn) [Example 91, N-((3R)-3-((2-aminopyrido[3,2-d]pyrimidin-4-yl)amino)-1-fluoroheptan-2-yl)acetamide]
AC50 (TNFα; Homo sapiens, PBMC, 24 h): 2 µM
AC50 (IFNα; Homo sapiens, PBMC, 24 h): > 50 µM
AC50 (IL12p40; Homo sapiens, PBMC, 24 h): 1.9 µM

CCCC[C@@H](CO)Nc1nc(N)nc2cccnc12 [Example 14, (S)-2-((2-aminopyrido[3,2-d]pyrimidin-4-yl)amino)hexan-1-ol]
AC50 (TNFα; Homo sapiens, PBMC, 24 h): 1.1 µM
AC50 (IFNα; Homo sapiens, PBMC, 24 h): 1.6 µM
AC50 (IL12p40; Homo sapiens, PBMC, 24 h): 0.94 µM

C[C@@H](CN)Nc1nc(N)nc2cccnc12 [Example 49, (S)—N^4-(1-aminopropan-2-yl)pyrido[3,2-d]pyrimidine-2,4-diamine]
AC50 (TNFα; PBMC): 22.4 µM
AC50 (IFNα; PBMC): 41.6 µM
AC50 (IL12p40; PBMC): 18.1 µM

CCCC[C@@](C)(CO)Nc1nc(N)nc2cccnc12 [Example 60, (S)-2-((2-aminopyrido[3,2-d]pyrimidin-4-yl)amino)-2-methylhexan-1-ol]
AC50 (TNFα; Homo sapiens, PBMC, 24 h): 2.6 µM
AC50 (IFNα; Homo sapiens, PBMC, 24 h): 7.9 µM
AC50 (IL12p40; Homo sapiens, PBMC, 24 h): 2.3 µM
